Values joined by “and” are separate entries in the source; they are usually repeats but may differ in a detail not shown here. Equal values may be shown once.
Assays:
[1] = tested on: MYC mRNA; assay: qPCR of MYC mRNA in MCF7 cells; type: cell-based, human; conditions: 72 h
Description: (§1) qPCR. MCF7 and melanoma cells were treated with GTC365 and BRACO-19 for 72 h. Total RNA was extracted using an RNeasy mini-prep kit (Qiagen) and quantitated by measuring absorbance at 260 nm. cDNA was synthesized using a Takara PrimeScript™ RT Reagent Kit with gDNA eraser and then used as a template for qPCR. The qPCR was performed using Kapa Probe Fast qPCR Master Mix with ABI Taqman probes of hTERT (Hs00972656_m1), BCL2 (HS00608023_m1, FAM-labeled) or MYC (Hs00153408_m1), and GAPDH (Hs02758991_g1, VIC-labeled). The Ct values were measured by running Rotor-Gene Q, and the relative quantity of hTERT, BCL2, and MYC mRNA was obtained compared to GAPDH as an internal control.
(§2) BCL2 is a downstream molecule to hTERT such that BCL2 expression is activated by hTERT to repress apoptosis. To further define the effect of GTC365 on the transcription of hTERT, the relative mRNA levels of MYC and BCL2 were determined by quantitative PCR analysis in MCF7 cells after treatment with GTC365 for 72 h. […] A series of GTC260 analogs were synthesized and their effect on hTERT gene expression in MCF7A and U87 cells determined (FIG. 7). […] Therefore, GTC365 directly repressed the transcription of hTERT and then led to a downstream decrease of BCL2 expression.

[2] = tested on: Telomeric G4; assay: CD melting (Tm), telomeric G4; type: binding
Description: (§3) Circular dichroism. Oligomers of WT, G124A, G124/125A, G138/139A and G146A were synthesized and HPSF-purified by MGW Operon, Inc. For CD analysis, oligomers (5 μM) in a buffer containing 10 mM Tris-HCl (pH 7.5) and 140 mM KCl were annealed. For the CD analysis of the complex of oligomers and compounds, oligomers (5 μM) in a buffer containing 10 mM Tris-HCl (pH 7.5) and 5 mM KCl for GTC365 or 1 mM KCl for BRACO-19 were annealed. Oligomers and GTC365 or BRACO-19 were incubated overnight at room temperature. For the full-length of C-rich strand, the oligomer in a buffer of 10 mM Na cacodylate (pH 6.6) was annealed and then incubated with GTC365 overnight. CD analysis was conducted on a Jasco 810 spectropolarimeter (Jasco, Easton, Md.) using a quartz cell with 1 mm of path length, 1 nm of band width, and 1 s of response time for spectra at 20° C. Melting curves for the determination of Tm were obtained by recording ellipticity at 262 nm with increasing temperatures from 25° C. to 95° C. at a rate of 1.6° C./min. Tm of the C-rich strand with GTC365 was obtained from the CD signal at 286 nm within 10-60° C.
(§4) CD and DMS footprinting analyses were conducted to characterize the binding of GTC365 and BRACO-19 to the 5-12 G-quadruplex. […] To verify the effects of compounds on the thermal stability of the WT and the mutant G-quadruplexes, Tms were determined by CD. […] Since acridine derivatives are known to bind to telomeric G-quadruplex, the effects of GTC365 and BRACO-19 on telomeric G-quadruplex stability were compared by CD.
In contrast, BRACO-19 increased the Tm of telomeric G-quadruplex by ˜60% compared to that of the hTERT G-quadruplex at 0.5 and 1 equiv. A summary of the comparative Tms of GTC365 and BRACO-19 in hTERT and telomeric DNA is shown below.

[3] = tested on: hTERT mRNA; assay: qPCR of hTERT mRNA in MCF7 cells; type: cell-based, human
Description: as §1, §2

[4] = tested on: hTERT WT G4 (5-12 G-quadruplex); assay: CD melting (Tm), hTERT WT G4; type: binding, human
Description: as §3, §4

[5] = tested on: hTERT core promoter (pGL3-WT); assay: Luciferase assay, pGL3-WT in MCF7 cells; type: cell-based, human; conditions: 24 h
Description: (§5) Luciferase assay. From gDNA extracted from HeLa cells, the hTERT core promoter region, including −350 bp to +12 from the transcription start site, was amplified using a pair of primers, including KpnI and NheI restriction sites, for cloning of pGL3-hTERT with WT promoter sequence. Mutant constructs were generated by PCR-based site-directed mutagenesis. The sequence of each construct was confirmed by sequencing analysis. MCF7 cells in 24-well plate were transfected with 200 ng of pGL3 construct and 5 ng of pRL-TK by Fugene® HD Transfection Reagent and then incubated for 6 h. Media were replaced by fresh ones and the cells were treated with GTC365 or BRACO-19. The same volume of DMSO served as a control. […]
(§6) Since MYC is a key transcription factor for activation of the hTERT gene by binding to an E-box in the hTERT promoter region and is one of the oncogenes having a G-quadruplex structure in the promoter region, it was important to confirm that GTC365 affects the repression of hTERT promoter activity directly by binding to the G-quadruplex structure formed in the hTERT promoter and not by binding to the G-quadruplex in the MYC promoter. To distinguish between these possibilities, the luciferase activity of the pGL3-WT and pGL3-E-box mutant constructs were determined after treatment with GTC365. […]

[6] = tested on: hTERT core promoter E-box Mut construct; assay: Luciferase assay, pGL3-E-box mutant in MCF7 cells; type: cell-based, human; conditions: 24 h
Description: as §5, §6

| SMILES | effect on MYC mRNA level [1] | Tm of telomeric G-quadruplex increased compared to that of the hTERT G-quadruplex ([2]; 0.5 and 1 equiv) [%] | increase in Tm (ΔTm) ([2]; 0.5 equivalents) [°C] | increase in Tm (ΔTm) ([2]; 1 equivalent) [°C] | effect on hTERT transcription / mRNA level [3] | increase in Tm (ΔTm) ([4]; 0.5 equivalents) [°C] | increase in Tm (ΔTm) ([4]; 1 equivalent) [°C] | luciferase activity [5] | luciferase activity [6] | Tm increase of telomeric G-quadruplex less than that of the hTERT G-quadruplex ([2]; 1 and 2 equiv) [%] | increase in Tm (ΔTm) ([2]; 2 equivalents) [°C] | decrease of hTERT mRNA level ([3]; 72 h, 1 μM) | increase in Tm (ΔTm) ([4]; 2 equivalents) |
| --- | --- | --- | --- | --- | --- | --- | --- | --- | --- | --- | --- | --- | --- |
| CN(C)c1ccc(Nc2c3ccc(NC(=O)CCN4CCCC4)cc3nc3cc(NC(=O)CCN4CCCC4)ccc23)cc1 [BRACO-19, reference compound] | decreased | ~60 | 4.24 | 14.6 | decreased | 2.41 | 8.73 | decreased | failed to reduce | – | – | – | – |
| N=C(N)NCCCS(=O)(=O)Nc1ccc(Nc2c3ccccc3nc3cc([N+](=O)[O-])ccc23)cc1 [GTC365] | no significant change | – | – | 4.4 | significant effect | – | 6.47 | dose-dependent decrease | dose-dependent decrease | 42 | 7.5 | up to 67% | 12.9 °C and 12.92 °C |
